Row | Structure (SMILES) | melting point
1 | O=C1NN=C(C2CC2)C1=Cc1cc2cc([N+](=O)[O-])ccc2[nH]1 [Example 318, 3-Cyclopropyl-4-[(5-nitroindol-2-yl)methylene]-2-pyrazolin-5-one] | 316 to 320 °C
2 | CCOC1=NNC(=O)C1=Cc1cc([N+](=O)[O-])c[nH]1 [Example 153, 3-Ethoxy-4-[(4-nitropyrrol-2-yl)methylene]-2-pyrazolin-5-one] | 287 to 289 °C
3 | O=C1NN=C(COc2ccccc2)C1=Cc1ccc[nH]1 [Example 4, 3-Phenyloxymethyl-4-[(pyrrol-2-yl)methylene]-2-pyrazolin-5-one] | 163 to 165 °C
4 | NC(=O)c1ccc(CCC2=NNC(=O)C2=Cc2cc3ccccc3[nH]2)cc1 [Example 310, 3-(4-Carbamoylphenylethyl)-4-[(indol-2-yl)methylene]-2-pyrazolin-5-one] | 263 to 265 °C
5 | CCOC1=NNC(=O)C1=Cc1cc(Br)c[nH]1 [Example 112, 4-[(4-Bromopyrrol-2-yl)methylene]-3-ethoxy-2-pyrazolin-5-one] | 242 to 244 °C
6 | CC(C)OC1=NNC(=O)C1=Cc1ncc[nH]1 [Example 364, 4-[(Imidazol-2-yl)methylene]-3-isopropoxy-2-pyrazolin-5-one] | 212 to 214 °C
7 | CC(C)OC1=NNC(=O)C1=Cc1ccc(N(C)C)cc1 [Example 359, 4-[(4-Dimethylaminophenyl)methylene]-3-isopropoxy-2-pyrazolin-5-one] | 197 to 198 °C
8 | Cn1cc(C=C2C(=O)NN=C2C2CC2)c2ccc(C(=O)O)cc21 [Example 287, 4-[(6-Carboxy-1-methylindol-3-yl)methylene]-3-cyclopropyl-2-pyrazolin-5-one] | 237 to 240 °C (dec.)
9 | O=C1NN=C(Cc2ccccc2)C1=Cc1c[nH]c2ccccc12 [Example 210, 3-Benzyl-4-[(indol-3-yl)methylene]-2-pyrazolin-5-one] | 292 to 295 °C
10 | O=C1NN=C(Nc2ccccc2)C1=Cc1ccc[nH]1 [Example 13, 3-Phenylamino-4-[(pyrrol-2-yl)methylene]-2-pyrazolin-5-one] | 285 to 287 °C
11 | COc1ccc(CC2=NNC(=O)C2=Cc2ccc[nH]2)cc1 [Example 6, 3-(4-Methoxybenzyl)-4-[(pyrrol-2-yl)methylene]-2-pyrazolin-5-one] | 179 to 180 °C
12 | Cc1ccc(C=C2C(=O)NN=C2C2CC2)[nH]1 [Example 72, 3-Cyclopropyl-4-[(5-methylpyrrol-2-yl)methylene]-2-pyrazolin-5-one] | 170 to 172 °C
13 | O=C1NN=C(C2CCCCC2)C1=Cc1cn(CCCCO)c2ccccc12 [Example 266, 3-Cyclohexyl-4-{[1-(4-hydroxybutyl)indol-3-yl]methylene}-2-pyrazolin-5-one] | 226 to 227 °C
14 | COc1ccc(OCC2=NNC(=O)C2=Cc2c[nH]c3ccccc23)cc1 [Example 212, 4-[(Indol-3-yl)methylene]-3-(4-methoxyphenyloxymethyl)-2-pyrazolin-5-one] | 266 to 268 °C
15 | Nc1ccc(CCC2=NNC(=O)C2=Cc2c[nH]c3ccccc23)cc1 [Example 243, 3-(4-Aminophenylethyl)-4-[(indol-3-yl)methylene]-2-pyrazolin-5-one] | 244 to 246 °C
16 | CC(C)C1=NNC(=O)C1=Cc1ccc[nH]1 [Example 105, 3-Isopropyl-4-[(pyrrol-2-yl)methylene]-2-pyrazolin-5-one] | 120 to 122 °C
17 | O=C1NN=C(Nc2ccccc2)C1=Cc1c[nH]c2ccccc12 [Example 220, 4-[(Indol-3-yl)methylene]-3-phenylamino-2-pyrazolin-5-one] | 265 to 267 °C
18 | O=C(CC1=NNC(=O)C1=Cc1ccc[nH]1)Nc1ccc(Cl)cc1 [Example 92, 3-(4-Chlorophenylaminocarbonylmethyl)-4-[(pyrrol-2-yl)methylene]-2-pyrazolin-5-one] | 240 to 242 °C
19 | Cn1cc(C=C2C(=O)NN=C2Nc2ccc(F)cc2)c2ccccc21 [Example 296, 3-(4-Fluorophenylamino)-4-[(1-methylindol-3-yl)methylene]-2-pyrazolin-5-one] | 218 to 219 °C
20 | O=C1NN=C(CCc2ccc([N+](=O)[O-])cc2)C1=Cc1ccc[nH]1 [Example 32, 3-(4-Nitrophenylethyl)-4-[(pyrrol-2-yl)methylene]-2-pyrazolin-5-one] | 224 to 226 °C
21 | O=C1NN=C(Cc2ccc(O)cc2)C1=Cc1c[nH]c2ccccc12 [Example 228, 3-(4-hydroxybenzyl)-4-[(indol-3-yl)methylene]-2-pyrazolin-5-one] | 295 to 300 °C

More lines, now with the values ahead:

Row | melting point | Structure (SMILES)
22 | 186 to 187 °C | Cc1cc(C)c(C=C2C(=O)NN=C2CCc2ccccc2)[nH]1 [Example 28, 4-[(3,5-Dimethylpyrrol-2-yl)methylene]-3-phenylethyl-2-pyrazolin-5-one]
23 | 216 to 217 °C | CCOC(=O)c1c(C)[nH]c(C=C2C(=O)NN=C2c2ccccc2)c1C [Example 145, 4-[(3,5-Dimethyl-4-ethoxycarbonylpyrrol-2-yl)methylene]-3-phenyl-2-pyrazolin-5-one]
24 | 224 to 225 °C | O=C1NN=C(c2ccncc2)C1=Cc1cn(CCCCO)c2ccccc12 [Example 267, 4-{[1-(4-Hydroxybutyl)indol-3-yl]methylene}-3-(4-pyridyl)-2-pyrazolin-5-one]
25 | > 300 °C (dec.) | Cc1[nH]c(C=C2C(=O)NN=C2c2cnccn2)c(C)c1C(=O)CN(C)C.Cl
26 | 235 to 237 °C | CCOC(=O)CC1=NNC(=O)C1=Cc1c[nH]c2ccccc12 [Example 254, 3-Ethoxycarbonylmethyl-4-[(indol-3-yl)methylene]-2-pyrazolin-5-one]
27 | 252 to 254 °C | CCOC(=O)c1c(C)[nH]c(C=C2C(=O)NN=C2C(F)(F)F)c1C [Example 160, 4-[(3,5-Dimethyl-4-ethoxycarbonylpyrrol-2-yl)methylene]-3-trifluoromethyl-2-pyrazolin-5-one]
28 | 217 to 219 °C | Cc1[nH]c(C=C2C(=O)NN=C2C2CC2)c(C)c1CN [Example 132, 3-Cyclopropyl-4-[(4-aminomethyl-3,5-dimethylpyrrol-2-yl)methylene]-2-pyrazolin-5-one]
29 | 212 to 216 °C | CCN(CC)CCc1c(C)[nH]c(C=C2C(=O)NN=C2c2ccnnc2)c1C [Example 209, 4-{[4-(2-Diethylaminoethyl)-3,5-dimethylpyrrol-2-yl]methylene}-3-(4-pyridazinyl)-2-pyrazolin-5-one]
30 | 227 °C | Cc1[nH]c(C=C2C(=O)NN=C2c2cnccn2)c(C(C)C)c1CN(C)C [Example 199, 4-[(Dimethylaminomethyl-3-isopropyl-5-methylpyrrol-2-yl)methylene]-3-pyrazinyl-2-pyrazolin-5-one]
31 | 208.1 °C | CCN(CC)CCCc1c(C)[nH]c(C=C2C(=O)NN=C2c2cnccn2)c1C [Example 186, 4-{[4-(3-Diethylaminopropyl)-3,5-dimethylpyrrol-2-yl]methylene}-3-pyrazinyl-2-pyrazolin-5-one]
32 | 248 to 250 °C | CCOC1=NNC(=O)C1=Cc1c[nH]c2ccccc12 [Example 237, 3-Ethoxy-4-[(indol-3-yl)methylene]-2-pyrazolin-5-one]
33 | 218 to 220 °C | CCN(CC)CCc1c(C)[nH]c(C=C2C(=O)NN=C2c2cccnn2)c1C [Example 207, 4-{[4-(2-Diethylaminoethyl)-3,5-dimethylpyrrol-2-yl]methylene}-3-(3-pyridazinyl)-2-pyrazolin-5-one]
34 | 212 to 215 °C | O=C1NN=C(c2cccnc2)C1=Cc1c[nH]c2ncccc12
35 | 262 to 264 °C | Cc1[nH]c2ccccc2c1C=C1C(=O)NN=C1OC(C)C [Example 244, 3-Isopropoxy-4-[(2-methylindol-3-yl)methylene]-2-pyrazolin-5-one]
36 | 225 to 227 °C | CCOC1=NNC(=O)C1=Cc1[nH]c(Cl)c(CC(=O)OC)c1C(=O)OC [Example 156, 4-[(5-Chloro-3-methoxycarbonyl-4-methoxycarbonylmethylpyrrol-2-yl)methylene]-3-ethoxy-2-pyrazolin-5-one]
37 | 184 °C | CCN(CC)CCCCc1c(C)[nH]c(C=C2C(=O)NN=C2c2cnccn2)c1C [Example 193, 4-{[4-(4-Diethylaminobutyl)-3,5-dimethylpyrrol-2-yl]methylene}-3-pyrazinyl-2-pyrazolin-5-one]
38 | 250 °C (dec.) | CCOC(=O)C1=NNC(=O)C1=Cc1c[nH]c2ccccc12 [Example 283, 3-Ethoxycarbonyl-4-[(indol-3-yl)methylene]-2-pyrazolin-5-one]
39 | 192 to 194 °C | CCNCCc1c(C)[nH]c(C=C2C(=O)NN=C2c2cnccn2)c1C [Example 185, 4-{[3,5-Dimethyl-4-(2-ethylaminoethyl)pyrrol-2-yl]methylene}-3-pyrazinyl-2-pyrazolin-5-one]
40 | 273 to 276 °C | COc1ccc(CC2=NNC(=O)C2=Cc2c[nH]c3ncccc23)cc1 [Example 338, 4-[(7-Azaindol-3-yl)methylene]-3-(4-methoxybenzyl)-2-pyrazolin-5-one]
41 | 173 to 175 °C | Cc1[nH]c(C=C2C(=O)NN=C2OC(C)C)c(C)c1CN(C)C [Example 86, 4-[(3,5-Dimethyl-4-dimethylaminomethylpyrrol-2-yl)methylene]-3-isopropoxy-2-pyrazolin-5-one]
42 | 162 to 164 °C | Cc1[nH]c(C=C2C(=O)NN=C2OC(C)C)c(C)c1CN1CCOCC1 [Example 85, 4-[(3,5-Dimethyl-4-morpholinomethylpyrrol-2-yl)methylene]-3-isopropoxy-2-pyrazolin-5-one]
43 | 186 to 188 °C | CCOC(=O)c1c(C)[nH]c(C=C2C(=O)NN=C2CCc2ccc(N)cc2)c1C [Example 50, 3-(4-Aminophenylethyl)-4-[(3,5-dimethyl-4-ethoxycarbonylpyrrol-2-yl)methylene]-2-pyrazolin-5-one]
44 | > 300 °C | Cn1cc(C=C2C(=O)NN=C2c2cnccn2)c2ccc(C(=O)O)cc21 [Example 304, 4-[(6-Carboxy-1-methylindol-3-yl)methylene]-3-pyrazinyl-2-pyrazolin-5-one]
45 | 128 to 130 °C | Cc1ccc(C=C2C(=O)NN=C2OC(C)C)[nH]1 [Example 44, 3-Isopropoxy-4-[(5-methylpyrrol-2-yl)methylene]-2-pyrazolin-5-one]

From patent US7060822B1, “2-pyrazolin-5-ones” (Abbott GmbH & Co. KG, priority 1999, dated 2006)
